Experimental data taken from US9744250B2, “Chemical model of a neurodegenerative disease, method for preparation and uses of same” (priority 2012, dated 2017).

Assays:
[1] = test system: rats; assay: Lethality of 7-day oral administration in rats; format: in vivo, rat; conditions: daily dose of 20 mg/kg for seven days
Protocol: A platform for electrophysiological and behavioral monitoring of the rats was used. For this, a subcutaneous implant (Data Science) was placed in the rats which allowed the EEG to be recorded by telemetry, leaving the animal completely free to move about. The cage was equipped with a video camera (10 frames per second) and an infrared light to allow recordation of the animal's activity. The EEG and video sequences were recorded in sequences of 10 seconds, and a set of variables was calculated for each sequence. The use of dedicated software allowed integration of these variables over the entire recording to detect changes in the animal's activity, EEG, and circadian rhythms. Each animal served as its own control because it was recorded for 5 days prior to furosemide pyridinium administration. The solution of furosemide pyridinium (20 mg) was dissolved in dimethylsulfoxide (DMSO, 200 μl) and then diluted with water (50 ml). The solution was replaced every day and administered for 7 days in the drinking water at a dose of 20 mg/kg. The rats were then sacrificed 5 weeks after the last dose. The rats were anesthetized with pentobarbital and infused intracardially with saline ([…]), then fixed with 4% paraformaldehyde. After the infusion, the brain was removed and placed in NaCl (0.9%) at 4° C. The brain was frozen in Tissue Tek immersed in a cold isopentane bath. […]

[2] = test system: mitochondria isolated from rat cerebral cortex; assay: Respiratory control (oxygen consumption, malate/pyruvate) of isolated cerebral cortex mitochondria; format: biochemical; conditions: increasing concentration
Protocol: The animal was then decapitated in order to collect from the brain either the cortex or the striatum, which were quickly placed in a Potter Elvejhem® containing 6 ml of extraction buffer at 4° C. (250 mM sucrose, 40 mM KCl, 2 mM EGTA, lmg/ml BSA, 20 mM Tris, pH=7.2). This mixture was homogenized to break open the cells and release the mitochondria and then centrifuged at 2000 g for 8 minutes to remove the larger membrane debris and the nuclei from the pellet. The supernatant was then recovered and centrifuged at 13,000 g for 11 minutes. The supernatant was discarded while the pellet containing a mitochondria-rich fraction was resuspended in 500 μl of respiration buffer at 4° C. (300 mM D-mannitol, 10 mM KCl, 10 mM KH2PO4, 5 mM MgCl2, pH=7.2). […]
Added to the polarography chamber (Hansatech) were 30 μl of mitochondria solution (0.2 mg), 460 μL of respiration buffer, 5 μl of test compound solution (meaning MPP+ or furosemide pyridinium) (or its solubilizing solvent). […] The effect of the compound on respiratory control was evaluated (ratio of stage 3 to 4), which corresponds to the coupling of the respiratory chain, or in other words the ATP synthesis at complex V and the oxygen consumption due to complexes I to IV. The results are expressed as percentages of the value measured for mitochondria not treated with the test compound (but treated with the solubilizing solvent).

[3] = test system: complex I; assay: Complex I activity of mitochondria from striata of exposed mice; format: in vivo, mouse; conditions: 20 mg/kg/day oral 7 days, 30 days after end of exposure
Protocol: The kinetics of the oxidation reaction of NADH into NAD+ at 340 nm at 37° C. were continuously monitored by spectrophotometry using a JASCO V-530 spectrophotometer or a TECAN 1000M Infinite plate reader, set to a wavelength of 340 nm for 3 min. The amount of mitochondria extract to obtain the maximum activity introduced into the reaction volume was 100 μg with the spectrophotometer and 10 μg with the reader. Each manipulation must be done at substrate saturation, which is an NADH concentration of 160 μM. Mitochondria previously divided into multiple aliquots were frozen, then quickly thawed a few minutes before use. In a first step, the mitochondria extract was introduced into the hypotonic buffer (50 mM KH2PO4 and 10 mM MgCl2, pH=7.2 at 37° C.) for 2 minutes to break open the mitochondrial membranes and access the respiratory chain (Chretien et al., Biochem Biophys Res Commun, 2003, 301(1):222-4). […] The slope of the kinetics was then measured. […] The inhibition percentage was then calculated. […]
For each mouse sacrificed, cortex and striatum samples had been previously collected and processed to extract the mitochondria. The activity of the mitochondrial respiratory chain and of complex I were determined as described in Part B above, in the “Materials and Methods” subsection (without addition of furosemide pyridinium or an analog to the medium).

[4] = test system: caspase-8; assay: Caspase-8 activity (Ac-IETD-AFC cleavage) in SH-SY5Y cells; format: cell-based, human; conditions: 1 mM, 96 h
Protocol: Measurement of the activities of the various caspases is based on the ability of the caspases to cleave specific fluorescent substrates: Ac-DEVD-AFC for caspase-3, Ac-IETD-AFC for caspase-8, or Ac-LEHD-AFC for caspase-9. SH-SY5Y neuronal cells were incubated in 48-well plates with either furosemide pyridinium (1 mM) for 96 h or with MPP+ (1 mM) for 6 h, then 24 h of incubation with no MPP+. After incubation, the cells were trypsinized, then rinsed with PBS and counted, then harvested in 100 μl of buffer containing 30 mM HEPES, 0.3 mM EDTA, 100 mM NaCl, 0.15% Triton X-100, and 10 mM DTT. The cell extract was then incubated for 1 hour at 37° C. with the specific substrate (100 μM) in a 96-well plate. Fluorescence was measured at λex400 nm and λem505 nm in a fluorescence detection plate reader (TECAN Infinite M1000) (Yue et al., supra). The results were expressed as percentages relative to the measured activity of cells cultured under the same conditions and not subjected to any treatment.

NS(=O)(=O)c1cc(C(=O)[O-])c(-[n+]2cccc(O)c2)cc1Cl [furosemide pyridinium, 4-chloro-2-(3-hydroxypyridinium-1-yl)-5-sulfamoylbenzoate]
lethality [1]: not lethal | respiratory control of cerebral cortex mitochondria induced by malate/pyruvate [2]: diminished | decrease in activity of complex I of striatal mitochondria vs control animals [3]: 49% | change in caspase-8 activity [4]: did not induce significant changes
